{"source": "patent US8338423B2", "about": "“Compositions for the treatment of hyperphenylalaninemia” (Universidad de Zaragoza, priority 2007, dated 2012)", "key": {"[1]": {"target": "T1, wt-PAH (Homo sapiens, UniProt P00439)", "T1 construct": "made in house; host or cells: E. coli", "T1 sequence (P00439 1-452)": "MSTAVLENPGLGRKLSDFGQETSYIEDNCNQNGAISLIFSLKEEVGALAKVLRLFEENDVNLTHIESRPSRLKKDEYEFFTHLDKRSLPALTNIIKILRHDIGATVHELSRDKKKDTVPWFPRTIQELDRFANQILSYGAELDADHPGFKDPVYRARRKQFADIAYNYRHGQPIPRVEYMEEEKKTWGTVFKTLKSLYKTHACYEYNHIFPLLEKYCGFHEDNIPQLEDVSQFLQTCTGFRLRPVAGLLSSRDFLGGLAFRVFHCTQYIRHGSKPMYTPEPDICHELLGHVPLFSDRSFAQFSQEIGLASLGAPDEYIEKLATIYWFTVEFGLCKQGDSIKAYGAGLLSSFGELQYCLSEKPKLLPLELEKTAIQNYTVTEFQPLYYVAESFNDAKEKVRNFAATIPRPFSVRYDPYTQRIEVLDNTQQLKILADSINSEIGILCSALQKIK", "experiment": "Quenching of PAH Trp-emission fluorescence", "assay_type": "binding", "settings": "apparent affinity, data not shown; read-out: ligand concentration inducing a 50% decrease in Trp-fluorescence", "procedure": "As expected, the stabilizing effect was concentration dependent for all four of them, being significant at 25 μM for compounds 11 and 13 (FIG. 2). […] The apparent affinities of wt-PAH for these four ligands were further studied by monitoring quenching effects of these ligands on PAH Trp-emission fluorescence (not shown). Ligands 11 and 13 induced significant fluorescence quenching, inducing a 50% decrease in Trp-fluorescence at ˜30 and ˜3 μM for ligands 11 and 13, respectively."}, "[2]": {"target": "T2, PAH (Mus musculus, UniProt P16331)", "T2 construct": "Liver homogenates were prepared at 4° C; from tissue; host or cells: liver of C57Bl/6 mice", "T2 sequence (P16331 1-453)": "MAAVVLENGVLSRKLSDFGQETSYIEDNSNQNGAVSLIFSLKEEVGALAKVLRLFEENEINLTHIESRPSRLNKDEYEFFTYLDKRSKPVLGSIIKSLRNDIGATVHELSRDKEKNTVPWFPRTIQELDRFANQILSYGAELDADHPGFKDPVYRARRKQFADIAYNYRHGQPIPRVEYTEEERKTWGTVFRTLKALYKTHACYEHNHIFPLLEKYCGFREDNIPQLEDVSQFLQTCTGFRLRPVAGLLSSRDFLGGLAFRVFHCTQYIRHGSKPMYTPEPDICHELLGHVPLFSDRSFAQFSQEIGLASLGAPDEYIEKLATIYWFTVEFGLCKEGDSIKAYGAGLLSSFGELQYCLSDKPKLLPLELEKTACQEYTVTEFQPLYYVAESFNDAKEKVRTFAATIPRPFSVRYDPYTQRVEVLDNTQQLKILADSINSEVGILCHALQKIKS", "experiment": "Hepatic PAH activity in mice after oral treatment", "assay_type": "in vivo", "settings": "oral about 5.9 mg/kg/day for 10 days; for measured PAH activity: liver extract, control group 1.27±0.63", "procedure": "(§1) Solutions of Compounds 11 and Compound 13 were prepared at concentrations of 5 mg/ml (14 mM) in 10% DMSO and 10% glucose. For that, stocks of 50 mg/ml (140 mM) of each compound in 100% DMSO were diluted 1:10 with a 10% glucose solution. Both the stocks and the final solutions of Compounds 11 and 13 are in fact suspensions since the compound is not soluble al these conditions.\nAnimal experiments were performed by Beat Töny (University of Zurich Children's Hospital). 25 μl/day of 10% DMSO (Group 1, control) or the solutions of Compound 11 (Group 2) or Compound 13 (Group […]) were administered orally for 10 days to young adult C57BI/6 mice (all females) exactly 12 weeks old and with weight between 19 to 23 g were in each group, i.e. in Group 2 and 3 animals were given about 5.9 mg/kg/day. Five animals were treated in each group, and no weight change was experienced upon treatment, i.e. <5% change between start and end. Animals were sacrificed at day 10 of treatment, and their livers were sectioned in two frozen immediately in liquid nitrogen, then the frozen half-livers were sent to the Department of Biomedicine, University of Bergen in dry ice. Liver homogenates were prepared at 4° C. in presence of dithiothreitol (DTT) and the protease inhibitors phenylmethylsulfonyl fluoride, leupeptin, and pepstatin as described, Elzaouk L, et al. J Biol Chem 2003; 278(30):28303-11. After homogeneization the extracts were clarified by centrifugation al 170,000 g for 30 min at 4° C.\nThe concentration of soluble protein was about 35 mg/ml of liver extract, similar in each group. The hepatic PAH response to oral supplementation of DMSO and of Compounds 11, 13 in 10% DMSO was analyzed b determining: • i) PAH activity, as described, after removal of free amino acids and contaminants of low molecular weight by using Zebra™ Desalt Spin columns(Pierce). • ii) Pah-mRNA expression by quantitative real-time PCR analysis, performed as reported"}, "[3]": {"experiment": "Solubility in dosing stocks and final solutions", "assay_type": "physicochemical", "settings": "50 mg/ml in 100% DMSO stock and 5 mg/ml in 10% DMSO and 10% glucose", "procedure": "as §1"}}}
{"smiles": "Cc1ccnc(-n2c(=S)[nH]c3sc(C)c(C)c3c2=O)c1", "note": "[Compound 13, 5,6-dimethyl-3-(4-methyl-2-pyridinyl)-2-thioxo-2,3 dihydrothieno[2,3-d]pyrimidin-4(1H)-one]", "values": [{"measurement": "EC50", "setting": "[1]", "result": "~3", "unit": "µM"}, {"measurement": "measured PAH activity", "setting": "[2]", "result": "1.41±0.54"}, {"measurement": "increase in PAH activity (significance)", "setting": "[2]; liver", "result": "not significant"}, {"measurement": "solubility", "setting": "[3]", "result": "not soluble"}]}
{"smiles": "Nc1c(-c2ccc3ccccc3n2)c2ccc([N+](=O)[O-])cc2c(=O)n1Cc1ccccc1", "note": "[Compound 11, 3-amino-2-benzyl-7-nitro-4-(2-quinolyl)-1,2-dihydroisoquinolin-1-one]", "values": [{"measurement": "EC50", "setting": "[1]", "result": "~30", "unit": "µM"}, {"measurement": "measured PAH activity", "setting": "[2]", "result": "2.2±0.78"}, {"measurement": "increase in PAH activity", "setting": "[2]; liver, C57BI/6 mice", "result": 1.65, "unit": "fold"}, {"measurement": "solubility", "setting": "[3]", "result": "not soluble"}]}
